Results: patent publication US6153645A, “Heterocycles as antimicrobial agents” (Cubist Pharmaceuticals, Inc., priority 1999, dated 2000)
≈ marks a conversion by molar mass, not a printed value. Where two headings read alike, the source gives them in different places.

What was measured:
E.faecalis PheRS = target: T1, E.faecalis PheRS (Enterococcus faecalis, UniProt Q836J6); test: aaRS charging and trichloroacetic acid precipitation assay, IC50 determination; format: biochemical; details: 20 min preincubation at 25 C; Km concentrations of substrates; stereoisomers tested separately
T1 sequence (Q836J6 1-348): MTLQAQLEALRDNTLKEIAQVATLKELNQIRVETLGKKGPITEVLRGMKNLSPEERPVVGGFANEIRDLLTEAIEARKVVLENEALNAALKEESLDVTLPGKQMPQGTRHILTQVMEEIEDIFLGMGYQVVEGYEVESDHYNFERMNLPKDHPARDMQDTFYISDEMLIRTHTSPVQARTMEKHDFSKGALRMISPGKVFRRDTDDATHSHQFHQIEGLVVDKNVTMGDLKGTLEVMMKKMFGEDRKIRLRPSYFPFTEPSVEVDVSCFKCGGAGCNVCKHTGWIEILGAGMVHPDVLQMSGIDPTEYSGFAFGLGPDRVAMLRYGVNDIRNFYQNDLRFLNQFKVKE
T1 sequence (Q836J5 1-807 partner): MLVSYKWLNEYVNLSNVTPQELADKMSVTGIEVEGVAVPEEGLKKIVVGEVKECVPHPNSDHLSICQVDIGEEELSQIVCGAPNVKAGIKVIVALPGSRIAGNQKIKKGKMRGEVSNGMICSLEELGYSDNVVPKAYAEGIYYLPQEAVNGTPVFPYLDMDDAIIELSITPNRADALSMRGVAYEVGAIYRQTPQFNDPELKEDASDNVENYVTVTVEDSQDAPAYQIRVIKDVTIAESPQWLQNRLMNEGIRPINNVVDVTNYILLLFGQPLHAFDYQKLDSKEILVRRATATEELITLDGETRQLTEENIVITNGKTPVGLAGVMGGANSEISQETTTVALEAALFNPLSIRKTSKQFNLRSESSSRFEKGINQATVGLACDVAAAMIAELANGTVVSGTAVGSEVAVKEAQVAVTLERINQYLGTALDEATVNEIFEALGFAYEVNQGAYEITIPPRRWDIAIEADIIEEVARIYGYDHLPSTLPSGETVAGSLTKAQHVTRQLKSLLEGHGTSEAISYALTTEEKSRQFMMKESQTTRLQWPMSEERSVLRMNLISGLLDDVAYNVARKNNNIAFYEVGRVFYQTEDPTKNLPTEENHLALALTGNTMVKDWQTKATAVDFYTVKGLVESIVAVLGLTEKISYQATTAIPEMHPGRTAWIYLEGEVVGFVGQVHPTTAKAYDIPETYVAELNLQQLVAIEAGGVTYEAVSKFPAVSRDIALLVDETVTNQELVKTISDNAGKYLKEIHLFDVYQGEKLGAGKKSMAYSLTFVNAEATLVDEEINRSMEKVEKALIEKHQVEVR
Procedure: IC50 determinations for the aminoacyl-tRNA synthetases (aaRS) isolated from pathogen or HeLa cells were carried out using a modification of the aaRS charging and trichloroacetic acid precipitation assay described previously (see examples: D. Kern et. al., Biochemie, 61, 1257-1272 (1979) and J. Gilbart et. al. Antimicrobial Agents and Chemotherapy, 37(1), 32-38 (1993)). The aaRS enzymes were prepared via standard cloning and expression methods and partially purified or partially purified from pathogen and HeLa cell extracts. The activity of each aaRS enzyme was standardized as trichloroacetic acid precipitable counts (cpm) obtained at 10 minutes reaction time at Km concentrations of substrates. For practical purposes, the minimal acceptable value is approximately 2000 cpm per 10 minute reaction.
Test compounds were typically present as serial dilutions in concentration ranges of 0.35 nM to 35 μM. Test compound solutions were prepared by dissolving test compound in 100% dimethyl sulfoxide and diluting to the final concentration with 50 mM HEPES, pH 7.5. IC50 determinations were typically performed in duplicate with each experiment containing 4-8 concentrations of inhibitor along with two no inhibitor controls.
IC50 incubations were initiated by supplementing the preincubation mixture to a final assay concentration of 10 mM MgCl2, 30 mM KCl, 10 mM KF, 50 mM HEPES (pH 7.5), […], 2-20 μM [^3 H] amino acid, and 90-180 μM crude tRNA in a final volume of 35 microliters. The reaction was incubated at 25° C. for 5-20 minutes. At specified time points a 15 microliter aliquot was removed and added to a well of a Millipore filtration plate (Multiscreen-FB, MAFB NOB 10) containing 100 microliters of cold 5% (wt/vol) trichloroacetic acid. Trichloroacetic acid precipitable material was collected by filtration on Millipore Multiscreen filtration station, washed twice with cold 5% trichloroacetic acid, twice with water, and dried. Plates were typically allowed to air dry for several hours or they were baked at 50° C. in a vacuum oven for 30 minutes. The radioactivity on the dried plates was quantitated by the addition of Packard Microscint-20 to the wells and counting with a Packard TopCount scintillation counter.
Inhibitor activity was typically reported as a percentage of the control aaRS activity. The IC50 value was determined by plotting per cent activity versus compound concentration in the assay and identifying the concentration at which 50% of the activity was remaining.
Stereoisomers are tested separately and referred to by the suffix a-d.

S.aureus = test: Whole cell antimicrobial screen (MIC, NCCLS microdilution); format: cell-based; details: for MIC: Staphylococcus aureus
Procedure: Compounds were tested for antimicrobial activity against a panel of organisms according to standard procedures described by the National Committee for Clinical Laboratory Standards (NCCLS document M7-A3, Vol. 13, No. 25, 1993/NCCLS document M27-P, Vol. 12, No. 25, 1992). Compounds were dissolved in 100% DMSO and were diluted to the final reaction concentration (0.1 μg/ml-500 μg/ml) in microbial growth media. In all cases the final concentration of DMSO incubated with cells is less than or equal to 1%. For minimum inhibitory concentration (MIC) calculations, 2-fold dilutions of compounds were added to wells of a microtiter plate containing 5×10^4 bacteria or fungal cells in a final volume of 200 lambda of an appropriate media (Mueller-Hinton Broth; Haemophilus Test Media; Mueller-Hinton Broth+5% Sheep Blood; or […]). Plates were incubated overnight at an appropriate temperature (30° C.-37° C.) and optical densities (measure of cell growth) were measured using a commercial plate reader. The MIC value is defmed as the lowest compound concentration inhibiting growth of the test organism.

[1] = 2-fold dilutions, overnight incubation, optical density readout
[2] = 2-fold dilutions, overnight incubation, optical density readout, read-out: MIC S.aureus

SMILES	IC50 (E.faecalis PheRS)	MIC S.aureus (S.aureus; [1])	MIC (S.aureus; [2])	MIC (S.aureus; read-out: MIC S.aureus, 2-fold dilutions, overnight incubation, optical density readout)
O=C(Nc1ccc(Cl)c(Cl)c1)C1C(c2ccccc2)NC23C(O)c4ccccc4C2OC(=O)C13 (single isomer, unassigned) [Example 3c]	400 nM	12.5 µg/mL (≈ 25.2 µM)		
O=C(Nc1ccc(Cl)c(Cl)c1)C1C(c2ccccc2)NC23C(O)c4ccccc4C2OC(=O)C13 (single isomer, unassigned) [Example 3b]	4300 nM		25 µg/mL (≈ 50.5 µM)	
Cc1ccc(NC(=O)C2C(c3ccccc3)OC34C(O)c5ccccc5C3OC(=O)C24)cc1Cl (centres unmarked) [Example 4b]	8230 nM	> 100 µg/mL		
O=C(Nc1ccc(Cl)c(Cl)c1)C1C(c2ccccc2)OC23C(O)c4ccccc4C2OC(=O)C13 (single isomer, unassigned) [Example 1b]	470 nM	6.25 µg/mL (≈ 12.6 µM)		
O=C(Nc1ccc(Cl)c(Cl)c1)C1C(c2ccccc2)OC23C(=NO)c4ccccc4C2OC(=O)C13 (centres unmarked) [Example 5]				< 100 µg/mL
Cc1ccc(NC(=O)C2C(c3ccccc3)OC34C(O)c5ccccc5C3OC(=O)C24)cc1Cl (centres unmarked) [Example 4a]	1480 nM	> 100 µg/mL		
O=C(Nc1ccc(Cl)c(Cl)c1)C1C(c2ccccc2)OC23C(=O)c4ccccc4C2OC(=O)C13 (centres unmarked) [Example 2]	3080 nM		> 100 µg/mL	
Cc1ccc(NC(=O)C2C(c3ccccc3)OC34C(O)c5ccccc5C3OC(=O)C24)cc1Cl (centres unmarked) [Example 4c]	33200 nM	25 µg/mL (≈ 52.5 µM)		
O=C(Nc1ccc(Cl)c(Cl)c1)C1C(c2ccccc2)OC23C(O)c4ccccc4C2OC(=O)C13 (single isomer, unassigned) [Example 1a]	170 nM	3.1 µg/mL (≈ 6.25 µM)		
